This passage reports inhibition and IC50 results from ChEMBL document CHEMBL5303765, “Data for DCP probe BAY-7081” (2023).

As a reminder, the inhibition is the change of the read-out against control, counted positive when it falls. For orientation: IC50 means the concentration at which inhibition is half-maximal. A lower IC50 goes with greater potency in that assay.

Assay [1] concerns the target Adenosine receptor A2a (Homo sapiens) (UniProt P29274). In words: Adenosine A2A Eurofins Panlabs panel. Conditions: Compound concentration 10.0 uM; call rule not given here.
In assay [2] the target is High affinity cAMP-specific and IBMX-insensitive 3',5'-cyclic phosphodiesterase 8A (Homo sapiens, UniProt O60658). Description: 3H-cAMP and 3H-cGMP Scintillation Proximity Assay (PDE8A). (SPA uses beads or plates that emit light when radiolabelled molecules are held near them.)
For assay [3], the target named is T1, Muscarinic acetylcholine receptor M1 (Homo sapiens) (UniProt P11229).
T1 sequence (whole entry): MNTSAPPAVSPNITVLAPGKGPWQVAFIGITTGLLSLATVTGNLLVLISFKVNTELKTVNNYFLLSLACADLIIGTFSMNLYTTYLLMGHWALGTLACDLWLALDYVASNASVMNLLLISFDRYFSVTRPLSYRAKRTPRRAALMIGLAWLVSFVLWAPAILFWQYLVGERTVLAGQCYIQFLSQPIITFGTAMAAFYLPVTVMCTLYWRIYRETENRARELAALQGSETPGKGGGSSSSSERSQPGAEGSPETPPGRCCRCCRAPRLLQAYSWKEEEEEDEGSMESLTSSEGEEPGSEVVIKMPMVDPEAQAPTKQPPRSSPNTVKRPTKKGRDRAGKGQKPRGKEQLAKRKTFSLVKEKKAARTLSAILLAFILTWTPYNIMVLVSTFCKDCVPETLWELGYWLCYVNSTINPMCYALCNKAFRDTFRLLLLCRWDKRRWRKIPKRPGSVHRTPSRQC
Description: Muscarinic M1 Eurofins Panlabs panel. The settings on record: Compound concentration 10.0 uM.

The target of assay [4] is Leukotriene C4 synthase (Cavia porcellus) (UniProt A6XA80). Description: Leukotriene LTC4 Synthase Eurofins Panlabs panel. Conditions: Compound concentration 10.0 uM.
For assay [5], the target named is Muscarinic acetylcholine receptor M5 (Homo sapiens) (UniProt P08912). Conditions: Compound concentration 10.0 uM.
Assay [6] addresses T2, Muscarinic acetylcholine receptor M4 (Homo sapiens) (UniProt P08173).
T2 sequence (whole entry): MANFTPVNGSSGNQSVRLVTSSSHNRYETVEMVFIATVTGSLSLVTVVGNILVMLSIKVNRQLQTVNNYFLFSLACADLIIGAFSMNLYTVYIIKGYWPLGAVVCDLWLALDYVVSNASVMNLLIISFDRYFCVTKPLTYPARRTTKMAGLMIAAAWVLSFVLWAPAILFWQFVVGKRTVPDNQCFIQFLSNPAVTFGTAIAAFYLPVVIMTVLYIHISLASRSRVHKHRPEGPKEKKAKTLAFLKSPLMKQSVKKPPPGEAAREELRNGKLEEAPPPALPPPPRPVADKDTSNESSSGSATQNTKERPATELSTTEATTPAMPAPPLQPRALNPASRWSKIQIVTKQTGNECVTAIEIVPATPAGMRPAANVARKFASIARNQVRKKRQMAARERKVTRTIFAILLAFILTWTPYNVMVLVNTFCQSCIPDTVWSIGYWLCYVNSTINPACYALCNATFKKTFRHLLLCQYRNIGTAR
In words: Muscarinic M4 Eurofins Panlabs panel. The settings on record: Compound concentration 10.0 uM.

A further assay has as its target Phosphodiesterase PDE1 (Bos taurus, UniProt Q01061+P14100+A0A3Q1MCV4). Description: 3H-cAMP and 3H-cGMP Scintillation Proximity Assay (PDE1). In kind it is tissue-based, brain.
Assay [7] concerns the target Histamine H2 receptor (Homo sapiens) (UniProt P25021). Description: Histamine H2 Eurofins Panlabs panel. The settings on record: Compound concentration 10.0 uM.
Assay [8] has as its target Kappa-type opioid receptor (Homo sapiens) (UniProt P41145). In words: Opiate kappa(OP2, KOP) Eurofins Panlabs panel. The settings on record: Compound concentration 10.0 uM.
Assay [9] concerns the target Androgen receptor (Homo sapiens) (UniProt P10275). In words: Androgen (Testosterone) Eurofins Panlabs panel. The settings on record: Compound concentration 10.0 uM.
Assay [10] deals with T3, 5-hydroxytryptamine receptor 2C (Homo sapiens) (UniProt P28335).
T3 sequence (whole entry): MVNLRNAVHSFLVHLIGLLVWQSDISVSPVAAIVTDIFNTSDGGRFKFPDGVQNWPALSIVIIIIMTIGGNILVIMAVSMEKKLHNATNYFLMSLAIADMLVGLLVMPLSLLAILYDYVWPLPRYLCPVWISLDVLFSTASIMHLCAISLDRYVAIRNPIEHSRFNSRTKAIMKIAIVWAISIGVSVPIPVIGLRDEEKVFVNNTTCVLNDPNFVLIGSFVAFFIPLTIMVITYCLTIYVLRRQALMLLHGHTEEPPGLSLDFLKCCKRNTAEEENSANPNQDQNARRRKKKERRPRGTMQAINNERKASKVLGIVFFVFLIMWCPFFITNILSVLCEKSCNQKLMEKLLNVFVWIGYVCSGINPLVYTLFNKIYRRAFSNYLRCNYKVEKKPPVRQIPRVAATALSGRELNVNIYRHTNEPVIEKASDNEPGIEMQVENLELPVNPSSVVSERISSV
Description: Serotonin (5-Hydroxytryptamine) 5-HT2C Eurofins Panlabs panel. The settings on record: Compound concentration 10.0 uM.

The target of assay [11] is Prostaglandin G/H synthase 2 (Homo sapiens) (UniProt P35354). In words: Cyclooxygenase COX-2 Eurofins Panlabs panel. The settings on record: Compound concentration 10.0 uM.
Assay [12] has as its target B1 bradykinin receptor (Homo sapiens) (UniProt P46663). Description: Bradykinin B1 Eurofins Panlabs panel. The settings on record: Compound concentration 10.0 uM.
The target in assay [13] is GABA transporter (Rattus norvegicus) (UniProt P31647+P23978+P31646+P48056). In words: Transporter, GABA Eurofins Panlabs panel. Conditions: Compound concentration 10.0 uM. In kind it is protein assay.
The target of assay [14] is Estrogen receptor (Homo sapiens) (UniProt P03372). In words: Estrogen Eralpha Eurofins Panlabs panel. Conditions: Compound concentration 10.0 uM.
The target of assay [15] is T4, D(4) dopamine receptor (Homo sapiens) (UniProt P21917).
T4 sequence (whole entry): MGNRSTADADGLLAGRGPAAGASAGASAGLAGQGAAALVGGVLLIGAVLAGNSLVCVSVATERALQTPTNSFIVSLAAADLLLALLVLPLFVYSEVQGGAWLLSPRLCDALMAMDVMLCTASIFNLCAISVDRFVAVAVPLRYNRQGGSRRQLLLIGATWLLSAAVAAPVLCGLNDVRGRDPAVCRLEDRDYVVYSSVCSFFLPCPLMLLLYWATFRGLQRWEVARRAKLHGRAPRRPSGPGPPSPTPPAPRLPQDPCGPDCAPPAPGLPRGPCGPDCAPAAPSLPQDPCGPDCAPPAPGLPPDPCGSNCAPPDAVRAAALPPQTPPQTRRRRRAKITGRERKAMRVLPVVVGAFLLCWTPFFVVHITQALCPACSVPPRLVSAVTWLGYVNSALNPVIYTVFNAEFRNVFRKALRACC
In words: Dopamine D4.2 Eurofins Panlabs panel. The settings on record: Compound concentration 10.0 uM.

The target in assay [16] is Purinergic P2Y (Rattus norvegicus) (UniProt O35811+Q9EPX4+P49651+Q63371+P41232+O35881+Q6GUG4). In words: Purinergic P2Y Eurofins Panlabs panel. In kind it is protein assay. The settings on record: Compound concentration 10.0 uM.
The target of assay [17] is Adenosine receptor A1 (Homo sapiens) (UniProt P30542). Description: Adenosine A1 Eurofins Panlabs panel. Conditions: Compound concentration 10.0 uM.
Assay [18] deals with Phosphodiesterase 3 (Homo sapiens) (UniProt Q14432+Q13370). In words: Phosphodiesterase PDE3 Eurofins Panlabs panel. In kind it is protein assay. The settings on record: Compound concentration 10.0 uM.
Assay [19] addresses Delta-type opioid receptor (Homo sapiens) (UniProt P41143). Description: Opiate delta1 (OP1, DOP) Eurofins Panlabs panel. The settings on record: Compound concentration 10.0 uM.
The target of assay [20] is 3',5'-cyclic-AMP phosphodiesterase 4D (Homo sapiens) (UniProt Q08499). Description: Panlabs assay PDE4D2. Set-up: compound concentration 10 uM. Conditions: at 10 µM.
The target of assay [21] is cGMP-dependent 3',5'-cyclic phosphodiesterase (Homo sapiens, UniProt O00408). In words: Panlabs assay PDE2A. On the set-up: compound concentration 10 uM. The settings on record: at 10 µM.

Sequence of Muscarinic acetylcholine receptor M5 (Homo sapiens) (P08912 whole entry): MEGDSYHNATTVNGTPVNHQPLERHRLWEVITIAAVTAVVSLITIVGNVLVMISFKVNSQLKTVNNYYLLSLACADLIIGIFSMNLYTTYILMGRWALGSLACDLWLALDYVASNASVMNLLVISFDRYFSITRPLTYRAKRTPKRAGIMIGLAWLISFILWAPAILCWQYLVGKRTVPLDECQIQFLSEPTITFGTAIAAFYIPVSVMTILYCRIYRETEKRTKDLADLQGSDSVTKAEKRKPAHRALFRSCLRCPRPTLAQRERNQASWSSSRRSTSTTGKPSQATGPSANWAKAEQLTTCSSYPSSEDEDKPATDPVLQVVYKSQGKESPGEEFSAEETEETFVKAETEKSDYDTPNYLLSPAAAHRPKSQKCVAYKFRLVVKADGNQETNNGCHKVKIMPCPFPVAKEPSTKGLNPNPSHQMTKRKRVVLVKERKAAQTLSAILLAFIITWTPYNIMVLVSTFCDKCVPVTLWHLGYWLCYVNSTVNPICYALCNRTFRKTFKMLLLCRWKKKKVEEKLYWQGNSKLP
Sequence of Adenosine receptor A1 (Homo sapiens) (P30542 whole entry): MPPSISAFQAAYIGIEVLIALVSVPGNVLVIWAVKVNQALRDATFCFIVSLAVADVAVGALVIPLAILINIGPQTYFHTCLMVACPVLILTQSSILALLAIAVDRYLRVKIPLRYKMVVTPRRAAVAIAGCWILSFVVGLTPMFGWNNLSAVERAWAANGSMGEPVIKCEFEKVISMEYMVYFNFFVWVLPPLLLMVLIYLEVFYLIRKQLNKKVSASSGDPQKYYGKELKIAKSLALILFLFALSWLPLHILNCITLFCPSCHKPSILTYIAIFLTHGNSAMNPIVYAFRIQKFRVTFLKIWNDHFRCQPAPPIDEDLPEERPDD
Sequence of Kappa-type opioid receptor (Homo sapiens) (P41145 whole entry): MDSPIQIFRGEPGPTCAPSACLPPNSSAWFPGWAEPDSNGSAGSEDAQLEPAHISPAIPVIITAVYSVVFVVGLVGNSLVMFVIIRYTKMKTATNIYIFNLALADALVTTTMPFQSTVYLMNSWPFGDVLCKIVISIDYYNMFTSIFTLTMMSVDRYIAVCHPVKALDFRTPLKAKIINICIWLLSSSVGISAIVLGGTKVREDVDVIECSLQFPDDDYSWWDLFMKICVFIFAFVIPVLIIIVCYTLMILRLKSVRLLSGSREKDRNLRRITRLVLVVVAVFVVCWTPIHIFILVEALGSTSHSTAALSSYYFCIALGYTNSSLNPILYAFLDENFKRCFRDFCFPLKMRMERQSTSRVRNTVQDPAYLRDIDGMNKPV
Sequence of Prostaglandin G/H synthase 2 (Homo sapiens) (P35354 whole entry): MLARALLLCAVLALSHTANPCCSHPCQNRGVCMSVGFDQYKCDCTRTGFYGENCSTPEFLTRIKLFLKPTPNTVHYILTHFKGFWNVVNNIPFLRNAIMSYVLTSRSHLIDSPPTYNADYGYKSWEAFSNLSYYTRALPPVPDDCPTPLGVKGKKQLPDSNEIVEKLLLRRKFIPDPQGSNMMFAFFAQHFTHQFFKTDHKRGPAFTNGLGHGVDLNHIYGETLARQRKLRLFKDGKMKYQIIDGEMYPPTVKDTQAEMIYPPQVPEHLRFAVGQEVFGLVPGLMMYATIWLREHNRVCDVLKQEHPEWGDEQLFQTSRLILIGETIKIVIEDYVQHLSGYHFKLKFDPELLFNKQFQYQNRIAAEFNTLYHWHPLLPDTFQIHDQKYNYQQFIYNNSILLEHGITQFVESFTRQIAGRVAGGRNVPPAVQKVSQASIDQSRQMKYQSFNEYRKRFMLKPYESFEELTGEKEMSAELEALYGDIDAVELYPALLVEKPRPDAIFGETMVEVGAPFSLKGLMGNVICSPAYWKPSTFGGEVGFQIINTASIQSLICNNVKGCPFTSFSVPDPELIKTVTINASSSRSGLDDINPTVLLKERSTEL
Sequence of Androgen receptor (Homo sapiens) (P10275 whole entry): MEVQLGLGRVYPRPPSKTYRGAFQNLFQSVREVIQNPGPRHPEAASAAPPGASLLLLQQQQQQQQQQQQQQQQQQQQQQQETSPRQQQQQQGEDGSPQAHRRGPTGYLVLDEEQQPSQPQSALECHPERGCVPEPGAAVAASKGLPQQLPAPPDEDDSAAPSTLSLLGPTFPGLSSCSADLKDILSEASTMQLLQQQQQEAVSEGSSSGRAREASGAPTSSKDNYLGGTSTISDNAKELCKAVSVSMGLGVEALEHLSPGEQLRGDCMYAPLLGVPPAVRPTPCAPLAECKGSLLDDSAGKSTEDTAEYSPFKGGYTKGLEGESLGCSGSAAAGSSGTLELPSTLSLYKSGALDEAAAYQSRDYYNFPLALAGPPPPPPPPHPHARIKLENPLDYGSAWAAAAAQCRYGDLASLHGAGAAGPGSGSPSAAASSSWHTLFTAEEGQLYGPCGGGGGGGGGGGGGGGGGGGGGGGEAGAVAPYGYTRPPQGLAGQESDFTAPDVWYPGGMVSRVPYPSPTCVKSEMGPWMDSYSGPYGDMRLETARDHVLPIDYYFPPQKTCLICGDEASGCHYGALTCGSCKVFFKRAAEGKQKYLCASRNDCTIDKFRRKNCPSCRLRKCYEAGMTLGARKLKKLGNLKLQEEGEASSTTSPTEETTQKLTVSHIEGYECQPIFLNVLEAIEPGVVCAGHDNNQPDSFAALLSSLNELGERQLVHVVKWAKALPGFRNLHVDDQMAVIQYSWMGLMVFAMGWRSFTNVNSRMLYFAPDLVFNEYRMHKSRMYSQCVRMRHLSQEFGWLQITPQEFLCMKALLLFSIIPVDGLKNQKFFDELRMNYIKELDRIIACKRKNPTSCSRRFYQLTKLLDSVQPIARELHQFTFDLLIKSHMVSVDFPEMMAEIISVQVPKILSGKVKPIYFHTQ
Sequence of Delta-type opioid receptor (Homo sapiens) (P41143 whole entry): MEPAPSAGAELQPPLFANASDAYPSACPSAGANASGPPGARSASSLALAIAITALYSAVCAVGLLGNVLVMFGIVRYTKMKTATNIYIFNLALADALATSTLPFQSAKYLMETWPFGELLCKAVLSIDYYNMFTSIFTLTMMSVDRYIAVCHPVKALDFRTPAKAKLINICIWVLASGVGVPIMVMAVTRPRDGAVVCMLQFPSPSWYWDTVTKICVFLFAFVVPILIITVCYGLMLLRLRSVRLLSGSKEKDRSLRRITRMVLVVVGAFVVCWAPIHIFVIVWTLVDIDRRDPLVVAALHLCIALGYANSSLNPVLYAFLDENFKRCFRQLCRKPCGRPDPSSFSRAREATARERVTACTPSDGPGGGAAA
Sequence of Estrogen receptor (Homo sapiens) (P03372 whole entry): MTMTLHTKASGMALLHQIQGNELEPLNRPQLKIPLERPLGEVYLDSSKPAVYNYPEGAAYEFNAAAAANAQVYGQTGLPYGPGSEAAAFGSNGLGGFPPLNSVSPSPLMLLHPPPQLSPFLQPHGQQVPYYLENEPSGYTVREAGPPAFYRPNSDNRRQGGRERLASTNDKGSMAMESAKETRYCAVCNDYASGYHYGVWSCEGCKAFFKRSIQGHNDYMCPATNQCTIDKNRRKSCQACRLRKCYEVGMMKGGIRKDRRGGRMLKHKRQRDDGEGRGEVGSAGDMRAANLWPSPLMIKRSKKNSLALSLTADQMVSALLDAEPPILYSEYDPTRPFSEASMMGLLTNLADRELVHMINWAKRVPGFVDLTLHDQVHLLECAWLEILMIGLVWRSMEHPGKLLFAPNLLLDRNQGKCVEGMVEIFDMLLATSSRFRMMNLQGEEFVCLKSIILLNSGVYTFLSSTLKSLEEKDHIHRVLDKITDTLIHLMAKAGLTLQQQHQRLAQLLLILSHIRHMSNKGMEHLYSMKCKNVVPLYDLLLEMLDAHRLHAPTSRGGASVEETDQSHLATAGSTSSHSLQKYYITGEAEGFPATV
Sequence of 3',5'-cyclic-AMP phosphodiesterase 4D (Homo sapiens) (Q08499 whole entry): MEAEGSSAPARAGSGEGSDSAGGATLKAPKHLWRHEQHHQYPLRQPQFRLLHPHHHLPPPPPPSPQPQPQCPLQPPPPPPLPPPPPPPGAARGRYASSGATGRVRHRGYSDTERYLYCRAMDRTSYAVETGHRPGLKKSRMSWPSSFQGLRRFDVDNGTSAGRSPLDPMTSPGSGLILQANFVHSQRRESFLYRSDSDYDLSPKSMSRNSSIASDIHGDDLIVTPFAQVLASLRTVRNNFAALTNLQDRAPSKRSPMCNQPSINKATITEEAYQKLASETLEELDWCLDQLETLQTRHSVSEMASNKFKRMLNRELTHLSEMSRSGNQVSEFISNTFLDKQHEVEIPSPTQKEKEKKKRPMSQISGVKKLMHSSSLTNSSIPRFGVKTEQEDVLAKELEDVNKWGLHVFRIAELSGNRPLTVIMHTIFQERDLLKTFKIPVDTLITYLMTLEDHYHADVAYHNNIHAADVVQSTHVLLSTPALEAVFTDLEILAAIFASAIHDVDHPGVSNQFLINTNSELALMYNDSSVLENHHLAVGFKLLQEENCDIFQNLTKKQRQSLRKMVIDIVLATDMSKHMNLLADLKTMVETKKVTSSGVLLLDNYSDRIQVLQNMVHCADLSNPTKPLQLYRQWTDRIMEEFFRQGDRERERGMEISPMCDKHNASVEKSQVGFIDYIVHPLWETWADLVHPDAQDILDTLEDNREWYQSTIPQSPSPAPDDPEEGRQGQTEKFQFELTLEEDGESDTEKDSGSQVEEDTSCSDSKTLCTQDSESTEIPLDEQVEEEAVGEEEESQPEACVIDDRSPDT
Sequence of Adenosine receptor A2a (Homo sapiens) (P29274 whole entry): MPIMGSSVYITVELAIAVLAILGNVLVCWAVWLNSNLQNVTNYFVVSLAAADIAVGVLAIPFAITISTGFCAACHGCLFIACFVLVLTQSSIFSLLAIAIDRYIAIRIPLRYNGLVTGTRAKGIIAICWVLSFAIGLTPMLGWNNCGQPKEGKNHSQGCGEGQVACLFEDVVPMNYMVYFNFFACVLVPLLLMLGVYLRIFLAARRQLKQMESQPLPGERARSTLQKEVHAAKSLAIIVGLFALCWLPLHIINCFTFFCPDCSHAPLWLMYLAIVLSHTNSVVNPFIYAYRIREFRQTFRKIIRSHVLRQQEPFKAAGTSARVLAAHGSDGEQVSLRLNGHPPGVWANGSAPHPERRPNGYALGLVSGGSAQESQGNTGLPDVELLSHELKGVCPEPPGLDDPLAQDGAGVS

On to `CCC[C@H]1CNCc2c1[nH]c(=O)c(C#N)c2N1CCC2(CC1)CC2`, for which the inhibition is 2% in assay [1]; -4% in assay [3]; 16% in assay [4]; -6.97% in assay [5]; -4% in [6]; 3% in [7]. Further, the inhibition was 24.2% in assay [8]; -6% in assay [9]; 5% in [10]; -5% in assay [11]; 1% in [12]; 11% in [13]. Also, the inhibition in assay [14] was 8%; in assay [15] it was 2%; in assay [16] it was 5%; in [17], 16%; in assay [18] it was -1.5%; in assay [19], 5%. Also, the IC50 in assay [2] was 1490 nM (not active); on Phosphodiesterase PDE1 it was 753 nM.

Take `CCC[C@@H]1CNCc2c1[nH]c(=O)c(C#N)c2N1CCC2(CC1)CC2`: the values for the inhibition in assay [20] and in [21] were 19.1% and 3.5%, respectively.
